Measured values: ChEMBL document CHEMBL5126643, “Design and Characterization of Novel Small Molecule Activators of Excitatory Amino Acid Transporter 2” (ACS Med Chem Lett, 2022)
pEC50: −log10 of the molar value.

Key:
[1] = target: Excitatory amino acid transporter 2 (Homo sapiens, UniProt P43004); assay: Activation of human EAAT2 overexpressed in MDCK cells assessed as glutamate reuptake incubated for 5 mins by LCMS assay; type: cell-based
[2] = Lipophilicity, log P of the compound; type: physicochemical; conditions: octanol/water
[3] = Tmax in Wistar rat plasma at 10 mg/kg, po measured up to 24 hrs by LC-MS/MS analysis; type: ADME, organism-based
[4] = Half life in Wistar rat plasma at 10 mg/kg, po measured up to 24 hrs by LC-MS/MS analysis; type: ADME, organism-based
[5] = Tmax in Wistar rat brain at 10 mg/kg, ip measured up to 24 hrs by LC-MS/MS analysis; type: ADME, organism-based
[6] = Cmax in Wistar rat plasma at 10 mg/kg, po measured up to 24 hrs by LC-MS/MS analysis; type: ADME, organism-based; parameters: dose 10 mg/kg, time < 24 hrs, route po
[7] = Cmax in Wistar rat brain at 5 mg/kg, iv measured up to 24 hrs by LC-MS/MS analysis; type: ADME, organism-based; parameters: dose 5 mg/kg, time < 24 hrs, route iv
[8] = Half life in Wistar rat brain at 10 mg/kg, ip measured up to 24 hrs by LC-MS/MS analysis; type: ADME, organism-based
[9] = Tmax in Wistar rat plasma at 5 mg/kg, iv measured up to 24 hrs by LC-MS/MS analysis; type: ADME, organism-based
[10] = AUC in Wistar rat plasma at 10 mg/kg, po measured up to 24 hrs by LC-MS/MS analysis; type: ADME, organism-based; parameters: time < 24 hrs, dose 10 mg/kg, route po; conditions: in vivo
[11] = Oral bioavailability in Wistar rat plasma at 10 mg/kg measured up to 24 hrs by LC-MS/MS analysis; type: ADME, organism-based
[12] = Tmax in Wistar rat brain at 10 mg/kg, po measured up to 24 hrs by LC-MS/MS analysis; type: ADME, organism-based
[13] = Half life in Wistar rat plasma at 10 mg/kg, ip measured up to 24 hrs by LC-MS/MS analysis; type: ADME, organism-based
[14] = AUC in Wistar rat brain at 5 mg/kg, iv measured up to 24 hrs by LC-MS/MS analysis; type: ADME, organism-based; parameters: time < 24 hrs, dose 5 mg/kg, route iv; conditions: in vivo
[15] = Tmax in Wistar rat brain at 5 mg/kg, iv measured up to 24 hrs by LC-MS/MS analysis; type: ADME, organism-based
[16] = AUC in Wistar rat plasma at 10 mg/kg, ip measured up to 24 hrs by LC-MS/MS analysis; type: ADME, organism-based; parameters: time < 24 hrs, dose 10 mg/kg, route ip; conditions: in vivo
[17] = Bioavailability in Wistar rat plasma at 10 mg/kg, ip measured up to 24 hrs by LC-MS/MS analysis; type: ADME, organism-based
[18] = Cmax in Wistar rat plasma at 5 mg/kg, iv measured up to 24 hrs by LC-MS/MS analysis; type: ADME, organism-based; parameters: dose 5 mg/kg, time < 24 hrs, route iv
[19] = Cmax in Wistar rat brain at 10 mg/kg, ip measured up to 24 hrs by LC-MS/MS analysis; type: ADME, organism-based; parameters: time < 24 hrs, dose 10 mg/kg, route ip
[20] = Half life in Wistar rat brain at 5 mg/kg, iv measured up to 24 hrs by LC-MS/MS analysis; type: ADME, organism-based
[21] = Half life in Wistar rat plasma at 5 mg/kg, iv measured up to 24 hrs by LC-MS/MS analysis; type: ADME, organism-based
[22] = AUC in Wistar rat brain at 10 mg/kg, po measured up to 24 hrs by LC-MS/MS analysis; type: ADME, organism-based; parameters: time < 24 hrs, dose 10 mg/kg, route po; conditions: in vivo
[23] = AUC in Wistar rat brain at 10 mg/kg, ip measured up to 24 hrs by LC-MS/MS analysis; type: ADME, organism-based; parameters: dose 10 mg/kg, time < 24 hrs, route ip; conditions: in vivo
[24] = Cmax in Wistar rat plasma at 10 mg/kg, ip measured up to 24 hrs by LC-MS/MS analysis; type: ADME, organism-based; parameters: dose 10 mg/kg, time < 24 hrs, route ip
[25] = AUC in Wistar rat plasma at 5 mg/kg, iv measured up to 24 hrs by LC-MS/MS analysis; type: ADME, organism-based; parameters: dose 5 mg/kg, time < 24 hrs, route iv; conditions: in vivo
[26] = Tmax in Wistar rat plasma at 10 mg/kg, ip measured up to 24 hrs by LC-MS/MS analysis; type: ADME, organism-based
[27] = Cmax in Wistar rat brain at 10 mg/kg, po measured up to 24 hrs by LC-MS/MS analysis; type: ADME, organism-based; parameters: dose 10 mg/kg, time < 24 hrs, route po
[28] = Cmax in CD-1 mouse plasma at 10 mg/kg, ip measured up to 8 hrs by LC-MS/MS analysis; type: ADME, organism-based; parameters: dose 10 mg/kg, time < 8 hrs, route ip
[29] = AUC in CD-1 mouse brain at 10 mg/kg, ip measured up to 8 hrs by LC-MS/MS analysis; type: ADME, organism-based; parameters: time < 8 hrs, dose 10 mg/kg, route ip; conditions: in vivo
[30] = AUC in CD-1 mouse plasma at 10 mg/kg, ip measured up to 8 hrs by LC-MS/MS analysis; type: ADME, organism-based; parameters: time < 8 hrs, dose 10 mg/kg, route ip; conditions: in vivo
[31] = Tmax in CD-1 mouse brain at 10 mg/kg, ip measured up to 8 hrs by LC-MS/MS analysis; type: ADME, organism-based
[32] = Cmax in CD-1 mouse brain at 10 mg/kg, ip measured up to 8 hrs by LC-MS/MS analysis; type: ADME, organism-based; parameters: dose 10 mg/kg, time < 8 hrs, route ip
[33] = Primary phase half life in CD-1 mouse plasma at 10 mg/kg, ip measured up to 8 hrs by LC-MS/MS analysis; type: ADME, organism-based; conditions: read-out: alphat1/2 (converted)
[34] = Tmax in CD-1 mouse plasma at 10 mg/kg, ip measured up to 8 hrs by LC-MS/MS analysis; type: ADME, organism-based
[35] = Primary phase half life in CD-1 mouse brain at 10 mg/kg, ip measured up to 8 hrs by LC-MS/MS analysis; type: ADME, organism-based; conditions: read-out: alphat1/2 (converted)
[36] = Half life in Wistar rat brain at 10 mg/kg, po measured up to 24 hrs by LC-MS/MS analysis; type: ADME, organism-based

Sequence of Excitatory amino acid transporter 2 (P43004 whole entry): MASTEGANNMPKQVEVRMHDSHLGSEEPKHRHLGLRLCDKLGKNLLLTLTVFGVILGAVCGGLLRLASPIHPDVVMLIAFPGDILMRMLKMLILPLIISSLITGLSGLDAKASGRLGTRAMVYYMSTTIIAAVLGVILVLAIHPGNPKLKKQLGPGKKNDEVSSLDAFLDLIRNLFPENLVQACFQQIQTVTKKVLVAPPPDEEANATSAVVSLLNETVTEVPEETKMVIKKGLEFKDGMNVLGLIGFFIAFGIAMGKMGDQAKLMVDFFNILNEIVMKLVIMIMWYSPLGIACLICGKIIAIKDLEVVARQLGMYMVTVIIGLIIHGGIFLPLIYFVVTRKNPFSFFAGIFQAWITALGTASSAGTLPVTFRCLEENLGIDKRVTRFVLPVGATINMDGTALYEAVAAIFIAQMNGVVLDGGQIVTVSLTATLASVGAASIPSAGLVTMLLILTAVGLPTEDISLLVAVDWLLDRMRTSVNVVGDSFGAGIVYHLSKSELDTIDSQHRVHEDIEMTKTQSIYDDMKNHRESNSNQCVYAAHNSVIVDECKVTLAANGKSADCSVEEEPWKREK

| SMILES | pEC50 [1] | logP [2] | Tmax [3] | half-life [4] | Tmax [5] | Cmax [6] | Cmax [7] | half-life [8] | Tmax [9] | AUC [10] | bioavailability [11] | Tmax [12] | half-life [13] | AUC [14] | Tmax [15] | AUC [16] | bioavailability [17] | Cmax [18] | Cmax [19] | half-life [20] | other results |
| --- | --- | --- | --- | --- | --- | --- | --- | --- | --- | --- | --- | --- | --- | --- | --- | --- | --- | --- | --- | --- | --- |
| Cc1ccccc1CSc1ccc(-c2ccccn2)nn1 | 5.74 | – | – | – | – | – | – | – | – | – | – | – | – | – | – | – | – | – | – | – | – |
| COc1ccc2[nH]c(=O)c(C(c3nnnn3CCc3ccccc3)N3CCN(C4CCCCC4)CC3)cc2c1 (stereo not drawn) | – | > 6 | – | – | – | – | – | – | – | – | – | – | – | – | – | – | – | – | – | – | – |
| CO/N=C(\C(=O)N[C@@H]1C(=O)N2C(C(=O)O)=C(CSc3nc(=O)c(=O)[nH]n3C)CS[C@H]12)c1csc(N)n1 [CEFTRIAXONE] | < 5.00 | – | – | – | – | – | – | – | – | – | – | – | – | – | – | – | – | – | – | – | – |

Continued, in another order:

| pEC50 [1] | logP [2] | Tmax [3] | half-life [4] | Tmax [5] | Cmax [6] | Cmax [7] | half-life [8] | Tmax [9] | AUC [10] | bioavailability [11] | Tmax [12] | half-life [13] | AUC [14] | Tmax [15] | AUC [16] | bioavailability [17] | Cmax [18] | Cmax [19] | half-life [20] | SMILES | other results |
| --- | --- | --- | --- | --- | --- | --- | --- | --- | --- | --- | --- | --- | --- | --- | --- | --- | --- | --- | --- | --- | --- |
| – | – | 3.25 h | 5.34 h | 0.5 h | 42.9 ng/g | 371 ng/g | 2.26 h | 0.5 h | 321.93 ng·h/g | 17.5% | 1.38 h | 6.22 h | 443.23 ng·h/g | 0.5 h | 1073.21 ng·h/g | 58.4% | 567 ng/g | 204 ng/g | 1.52 h | COc1ccc(NC(=O)C(=O)N2CCN(c3ccccc3)CC2)cc1 | half-life [21]: 6.08 h; AUC [22]: 183 ng·h/g; AUC [23]: 429.85 ng·h/g; Cmax [24]: 450 ng/g; AUC [25]: 919.43 ng·h/g; Tmax [26]: 0.63 h; Cmax [27]: 25 ng/g |
| – | > 6 | – | – | – | – | – | – | – | – | – | – | – | – | – | – | – | – | – | – | COc1ccc2[nH]c(=O)c(C(c3nnnn3CCc3ccccc3)N3CCN(c4cccc(C(F)(F)F)c4)CC3)cc2c1 (stereo not drawn) | Cmax [28]: 717 ng/mL; AUC [29]: 86 ng·h/g; AUC [30]: 1339 ng·h/g; Tmax [31]: 0.5 h; Cmax [32]: 30 ng/mL; half-life [33]: 3 h; Tmax [34]: 0.5 h; half-life [35]: 3.5 h |
| – | – | 0.875 h | 4.76 h | 0.5 h | 204 ng/g | 1220 ng/g | 1.62 h | 0.5 h | 507.2 ng·h/g | 80.3% | 0.88 h | 1.02 h | 1959.7 ng·h/g | 0.5 h | 536.768 ng·h/g | 85% | 307 ng/g | 2460 ng/g | 1.03 h | COc1ccc(NC(=O)C(=O)NCC(c2ccccc2)N2CCN(C)CC2)cc1 (stereo not drawn) | half-life [21]: 0.651 h; AUC [22]: 2816.8 ng·h/g; AUC [23]: 4414.35 ng·h/g; Cmax [24]: 262 ng/g; half-life [36]: 1.81 h; AUC [25]: 315.635 ng·h/g; Tmax [26]: 0.5 h; Cmax [27]: 1170 ng/g |
